Measurements reported in ChEMBL document CHEMBL5291721, “A preclinical secondary pharmacology resource illuminates target-adverse drug reaction associations of marketed drugs” (Nat Commun, 2023).

Columns and labels:
Adenosine receptor A3 = target: T1, Adenosine receptor A3 (Homo sapiens, UniProt P0DMS8)
T1 sequence (P0DMS8 whole entry): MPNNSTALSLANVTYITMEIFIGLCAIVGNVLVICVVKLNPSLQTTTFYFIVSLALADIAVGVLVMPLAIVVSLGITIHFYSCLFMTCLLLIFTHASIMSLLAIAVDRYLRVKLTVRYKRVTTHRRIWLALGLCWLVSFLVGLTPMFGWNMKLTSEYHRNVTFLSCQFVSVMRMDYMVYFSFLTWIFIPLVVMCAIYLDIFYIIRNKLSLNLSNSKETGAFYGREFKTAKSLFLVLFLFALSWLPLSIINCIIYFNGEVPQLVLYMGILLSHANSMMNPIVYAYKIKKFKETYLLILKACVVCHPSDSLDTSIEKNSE

[1] = target: T2, Type-1 angiotensin II receptor (Homo sapiens, UniProt P30556)
T2 sequence (P30556 whole entry): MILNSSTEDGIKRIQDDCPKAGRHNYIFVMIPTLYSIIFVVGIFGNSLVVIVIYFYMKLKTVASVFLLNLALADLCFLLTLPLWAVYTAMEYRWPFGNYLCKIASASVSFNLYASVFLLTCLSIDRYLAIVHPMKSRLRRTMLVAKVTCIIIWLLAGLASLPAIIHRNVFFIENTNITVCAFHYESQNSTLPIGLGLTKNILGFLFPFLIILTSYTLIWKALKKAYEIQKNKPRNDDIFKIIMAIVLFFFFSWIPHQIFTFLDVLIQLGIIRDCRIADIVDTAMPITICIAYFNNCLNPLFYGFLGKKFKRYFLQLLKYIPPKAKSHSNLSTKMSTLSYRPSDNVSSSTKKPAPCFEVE

[2] = target: Beta-1 adrenergic receptor (Homo sapiens, UniProt P08588); type: functional
Sequence of Beta-1 adrenergic receptor (P08588 whole entry): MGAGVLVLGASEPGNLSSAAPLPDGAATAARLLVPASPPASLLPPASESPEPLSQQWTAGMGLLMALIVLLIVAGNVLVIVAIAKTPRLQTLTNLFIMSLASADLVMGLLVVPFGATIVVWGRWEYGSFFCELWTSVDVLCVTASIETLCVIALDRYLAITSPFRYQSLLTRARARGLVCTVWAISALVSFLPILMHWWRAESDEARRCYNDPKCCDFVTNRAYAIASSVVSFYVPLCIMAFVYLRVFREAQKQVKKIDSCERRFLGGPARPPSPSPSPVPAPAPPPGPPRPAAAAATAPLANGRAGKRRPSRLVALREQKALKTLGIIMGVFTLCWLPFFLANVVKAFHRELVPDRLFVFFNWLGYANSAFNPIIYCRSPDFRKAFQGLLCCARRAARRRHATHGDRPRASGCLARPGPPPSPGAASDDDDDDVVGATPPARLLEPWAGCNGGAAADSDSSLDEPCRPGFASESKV

[3] = target: T3, Alpha-2A adrenergic receptor (Homo sapiens, UniProt P08913); type: functional, cell-based
T3 sequence (P08913 whole entry): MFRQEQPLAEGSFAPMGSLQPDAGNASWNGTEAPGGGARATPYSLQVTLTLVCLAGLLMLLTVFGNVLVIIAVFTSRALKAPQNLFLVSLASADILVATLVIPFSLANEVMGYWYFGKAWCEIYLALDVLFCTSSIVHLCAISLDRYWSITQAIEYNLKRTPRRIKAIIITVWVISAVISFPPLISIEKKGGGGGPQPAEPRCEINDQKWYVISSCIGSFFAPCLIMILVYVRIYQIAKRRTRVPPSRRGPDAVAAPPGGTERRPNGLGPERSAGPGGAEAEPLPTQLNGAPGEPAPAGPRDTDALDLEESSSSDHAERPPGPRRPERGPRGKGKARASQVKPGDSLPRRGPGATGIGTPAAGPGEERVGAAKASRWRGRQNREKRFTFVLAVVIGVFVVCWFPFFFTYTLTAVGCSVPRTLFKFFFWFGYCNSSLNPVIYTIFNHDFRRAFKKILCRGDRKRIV

[4] = target: Delta-type opioid receptor (Homo sapiens, UniProt P41143)
Sequence of Delta-type opioid receptor (P41143 whole entry): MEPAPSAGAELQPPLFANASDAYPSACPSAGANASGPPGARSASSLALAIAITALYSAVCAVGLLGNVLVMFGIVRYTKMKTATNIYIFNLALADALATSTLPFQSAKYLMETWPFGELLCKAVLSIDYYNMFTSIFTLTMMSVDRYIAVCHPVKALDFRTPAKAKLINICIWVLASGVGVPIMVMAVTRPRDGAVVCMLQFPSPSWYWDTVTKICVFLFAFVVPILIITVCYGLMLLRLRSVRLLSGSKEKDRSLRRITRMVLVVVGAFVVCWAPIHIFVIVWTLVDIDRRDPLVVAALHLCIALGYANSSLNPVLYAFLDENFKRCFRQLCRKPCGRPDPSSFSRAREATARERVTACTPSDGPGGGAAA

[5] = target: T4, 5-hydroxytryptamine receptor 3A (Homo sapiens, UniProt P46098); type: functional
T4 sequence (P46098 whole entry): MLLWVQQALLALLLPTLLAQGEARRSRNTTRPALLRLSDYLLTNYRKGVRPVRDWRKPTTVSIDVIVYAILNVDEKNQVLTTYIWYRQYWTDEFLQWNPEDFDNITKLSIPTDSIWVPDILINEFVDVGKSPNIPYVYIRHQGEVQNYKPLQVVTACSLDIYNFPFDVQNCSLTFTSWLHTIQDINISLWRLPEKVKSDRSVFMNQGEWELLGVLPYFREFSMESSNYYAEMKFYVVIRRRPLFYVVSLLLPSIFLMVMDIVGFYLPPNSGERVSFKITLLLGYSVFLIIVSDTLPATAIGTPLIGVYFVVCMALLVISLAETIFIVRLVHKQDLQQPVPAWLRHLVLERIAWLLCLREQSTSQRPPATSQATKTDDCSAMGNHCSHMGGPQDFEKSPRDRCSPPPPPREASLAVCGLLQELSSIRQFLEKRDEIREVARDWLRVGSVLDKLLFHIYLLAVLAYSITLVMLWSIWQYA

[6] = target: T5, Muscarinic acetylcholine receptor M2 (Homo sapiens, UniProt P08172); type: functional, cell-based
T5 sequence (P08172 whole entry): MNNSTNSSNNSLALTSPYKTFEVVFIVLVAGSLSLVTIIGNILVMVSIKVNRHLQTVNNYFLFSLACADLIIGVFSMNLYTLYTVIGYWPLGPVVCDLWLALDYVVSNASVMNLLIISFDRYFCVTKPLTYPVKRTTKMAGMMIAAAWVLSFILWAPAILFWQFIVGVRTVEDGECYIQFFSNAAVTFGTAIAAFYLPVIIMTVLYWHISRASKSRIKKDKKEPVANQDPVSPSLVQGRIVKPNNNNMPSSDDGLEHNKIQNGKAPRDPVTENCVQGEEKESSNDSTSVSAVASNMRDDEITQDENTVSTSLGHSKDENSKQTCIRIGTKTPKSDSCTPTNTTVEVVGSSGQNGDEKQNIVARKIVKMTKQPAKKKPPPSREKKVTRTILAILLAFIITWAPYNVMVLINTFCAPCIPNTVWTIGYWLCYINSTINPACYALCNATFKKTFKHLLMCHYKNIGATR

[7] = target: Gamma-aminobutyric acid receptor subunit alpha-1 (Rattus norvegicus, UniProt P62813); type: functional
Sequence of Gamma-aminobutyric acid receptor subunit alpha-1 (P62813 whole entry): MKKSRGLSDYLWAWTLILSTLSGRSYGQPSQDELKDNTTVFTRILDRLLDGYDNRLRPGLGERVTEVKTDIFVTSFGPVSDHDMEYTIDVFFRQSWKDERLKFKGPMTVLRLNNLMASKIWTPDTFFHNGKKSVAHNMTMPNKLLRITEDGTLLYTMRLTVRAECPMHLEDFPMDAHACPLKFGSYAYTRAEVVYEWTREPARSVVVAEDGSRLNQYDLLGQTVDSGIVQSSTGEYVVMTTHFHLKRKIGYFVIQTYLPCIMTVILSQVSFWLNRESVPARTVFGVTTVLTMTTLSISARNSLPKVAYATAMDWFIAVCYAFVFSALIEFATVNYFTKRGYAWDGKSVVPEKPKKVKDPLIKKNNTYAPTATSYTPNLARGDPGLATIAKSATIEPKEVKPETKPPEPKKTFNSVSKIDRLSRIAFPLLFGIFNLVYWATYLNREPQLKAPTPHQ
Note: assay procedure not described here.

| Structure (SMILES) | AC50 (Adenosine receptor A3) [µM] | AC50 [1] [µM] | AC50 [2] [µM] | AC50 [3] [µM] | AC50 [4] [µM] | AC50 [5] [µM] | AC50 [6] [µM] | AC50 [7] [µM] |
| --- | --- | --- | --- | --- | --- | --- | --- | --- |
| CC(=N)N1CC[C@H](SC2=C(C(=O)O)N3C(=O)[C@H]([C@@H](C)O)[C@H]3C2)C1 | 140 | > 300 | 230 | > 300 | 290 | > 300 | > 300 | – |
| CC(/C=C1\SC(=S)N(CC(=O)O)C1=O)=C\c1ccccc1 | 20 | 1.5 | 26 | > 30 | 9 | 13 | > 30 | > 30 |
| CC1(C)S[C@@H]2[C@H](NC(=O)[C@H](N)c3ccc(O)cc3)C(=O)N2[C@H]1C(=O)O [AMOXICILLIN] | > 30 | > 30 | > 30 | > 30 | > 30 | > 30 | > 30 | > 30 |
| O=C1CN2Cc3c(ccc(Cl)c3Cl)N=C2N1 [ANAGRELIDE] | > 30 | > 30 | > 10 | > 10 | > 30 | > 30 | > 10 | > 10 |
| CNCC[C@@H](Oc1ccccc1C)c1ccccc1 [ATOMOXETINE] | > 30 | > 30 | > 30 | – | > 30 | – | – | – |
| CCc1oc2ccccc2c1C(=O)c1cc(Br)c(O)c(Br)c1 [BENZBROMARONE] | 4.19 | 16 | 29 | > 30 | > 30 | > 30 | 14 | > 30 |
| C=C(C)[C@@H]1CCC(C)=C[C@H]1c1c(O)cc(CCCCC)cc1O [CANNABIDIOL] | – | > 30 | > 30 | > 10 | > 30 | > 30 | 8 | > 30 |
| CO/N=C(\C(=O)N[C@@H]1C(=O)N2C(C(=O)O)=C(COC(N)=O)CS[C@H]12)c1ccco1 [CEFUROXIME] | > 30 | > 30 | > 30 | > 30 | > 30 | > 30 | > 30 | > 30 |
| [H]/N=C(\N/C(=N/[H])NCCCCCCNC(=N)NC(=N)Nc1ccc(Cl)cc1)Nc1ccc(Cl)cc1 [CHLORHEXIDINE] | 4.1 | > 10 | 1.4 | > 30 | > 10 | 5.9 | – | > 10 |
| Clc1cccc(Cl)c1N=C1NCCN1 [CLONIDINE] | > 30 | > 30 | > 10 | – | > 30 | > 30 | > 10 | > 10 |
| COC(=O)[C@H](c1ccccc1Cl)N1CCc2sccc2C1 [CLOPIDOGREL] | > 30 | > 30 | – | > 30 | > 30 | > 30 | > 30 | > 30 |
| CN1C[C@H](C(=O)N[C@]2(C)O[C@@]3(O)[C@@H]4CCCN4C(=O)[C@H](Cc4ccccc4)N3C2=O)C[C@@H]2c3cccc4[nH]cc(c34)C[C@H]21 [DIHYDROERGOTAMINE] | > 30 | – | > 10 | – | > 30 | > 30 | > 10 | > 10 |
| CNCC[C@H](Oc1cccc2ccccc12)c1cccs1 [DULOXETINE] | > 30 | > 30 | 15 | > 10 | > 30 | 14 | > 10 | > 10 |
| CC1(C)O[C@@H]2C[C@H]3[C@@H]4C[C@H](F)C5=CC(=O)C=C[C@]5(C)[C@H]4[C@@H](O)C[C@]3(C)[C@]2(C(=O)CO)O1 [FLUNISOLIDE] | > 30 | > 30 | > 30 | > 30 | > 30 | > 30 | > 30 | > 30 |
| CCC(=O)O[C@@H](O[P@](=O)(CCCCc1ccccc1)CC(=O)N1C[C@H](C2CCCCC2)C[C@H]1C(=O)O)C(C)C [FOSINOPRIL] | – | – | – | > 30 | > 30 | > 30 | > 30 | > 30 |
| CC[C@@H](CO)NC(=O)[C@@H]1C=C2c3cccc4[nH]cc(c34)C[C@H]2N(C)C1 [METHYLERGONOVINE] | > 30 | > 30 | – | > 30 | > 30 | > 30 | > 30 | > 30 |
| CNCCC=C1c2ccccc2CCc2ccccc21 [NORTRIPTYLINE] | > 30 | > 30 | – | – | > 30 | > 30 | > 30 | > 30 |
| COc1ccnc(C[S+]([O-])c2nc3ccc(OC(F)F)cc3[nH]2)c1OC (stereo not drawn) [PANTOPRAZOLE] | – | > 30 | > 10 | > 10 | > 30 | > 30 | > 10 | > 10 |
| COc1ccc(Cc2nccc3cc(OC)c(OC)cc23)cc1OC [PAPAVERINE] | > 30 | > 30 | > 30 | > 30 | – | > 30 | > 30 | > 30 |
| CNC(=O)c1cc(Oc2ccc(NC(=O)Nc3ccc(Cl)c(C(F)(F)F)c3)c(F)c2)ccn1 [REGORAFENIB] | 2.51 | – | > 30 | – | > 30 | – | > 30 | – |
| O=C(Nc1c(Cl)cncc1Cl)c1ccc(OC(F)F)c(OCC2CC2)c1 [ROFLUMILAST] | > 30 | > 30 | > 30 | > 30 | – | > 30 | > 30 | > 30 |
| CC(C)N(CCCCOCC(=O)NS(C)(=O)=O)c1cnc(-c2ccccc2)c(-c2ccccc2)n1 [SELEXIPAG] | 7.89 | – | > 30 | > 30 | 25 | > 30 | > 30 | > 30 |
| Cn1c(=O)c2[nH]cnc2n(C)c1=O [THEOPHYLLINE] | – | > 30 | > 10 | > 10 | > 30 | > 30 | > 10 | > 10 |
| CN1CCN(CCCN2c3ccccc3Sc3ccc(S(=O)(=O)N(C)C)cc32)CC1 [THIOPROPERAZINE] | – | – | – | > 30 | 29 | > 30 | > 30 | > 30 |
